Laboratory results: patent publication US20170298056A1, “SMALL MOLECULE INHIBITORS OF HIV-1 ENTRY AND METHODS OF USE THEREOF” (Dana-Farber Cancer Institute, Inc., priority 2014, published 2017)
pIC50: −log10 of the molar value.

Key:
[1] = test system: JR-FL and KB9 Env chimeras; test: Viral infection assay, JR-FL/KB9 Env chimeras; type: cell-based, HIV-1
Description: (§1) Production of recombinant HIV-1 expressing luciferase. […] After 48 hours, the supernatant was collected, buffered with 50 mM Hepes pH 7.4 (final concentration) and centrifuged for 5 minutes at 750×g and 4° C. The virus-containing supernatant was used directly or frozen at −80° C.
(§2) Viral infection assay. Each test compound was serially diluted in DMSO in a 96-well B&W isoplate (PerkinElmer, Boston, Mass.) using an HP D300 Digital Dispenser, to a final volume of 450 nl. DMSO was used as a control. Viruses pseudotyped with a specific Env were added to each well and incubated briefly at room temperature. Cf2Th-CD4/CCR5 cells were detached with StemPro Accutase Cell Dissociation Reagent (Invitrogen, cat #A11105-01), washed once, and 5000 cells were added to each well. […] Following incubation, the medium was aspirated and cells were lysed with 30 μl of Passive Lysis Buffer (Promega, cat #E1941). The activity of the firefly luciferase, which was used as a reporter protein in the system, was measured with a Centro LB 960 luminometer (Berthold Technologies, Oak Ridge, Tenn.). One hundred microliters of assay buffer (15 mM MgSO4, 15 mM KH2PO4/K2HPO4 pH 7.8, 1 mM ATP and 1 mM DTT) was injected to each well, followed by a 50 μl injection of 1 mM Dluciferin potassium salt (BD Pharmingen, San Jose, Calif.); luminescence was measured for 2 sec. Infection of PBMC was done as above, but 20,000-40,000 cells/well and viruses concentrated by ultracentrifugation were used. After four hours of incubation with viruses, the cells were centrifuged at 200×g for 6 minutes at 4° C., resuspended in 100 μl RPMI-PBMC medium and incubated at 37° C. for an additional 36-40 hours (total 40-44 hours). Supernatant was removed after centrifugation at 400×g for 5 minutes and cells were processed to detect luciferase activity, as described above.

[2] = test system: HIV-2OC1; test: Viral infection assay, HIV-2 Env; type: cell-based; conditions: virus with HIV-2OC1 Env
Description: as §1
as §2, with “Infection of PBMC was done as above, but 20,000-40,000 cells/well and viruses concentrated by ultracentrifugation were used. After four hours of incubation with viruses, the cells were centrifuged at 200×g for 6 minutes at 4° C., resuspended in 100 μl RPMI-PBMC medium and incubated at 37° C. for an additional 36-40 hours (total 40-44 hours). Supernatant was removed after centrifugation at 400×g for 5 minutes and cells were processed to detect luciferase activity, as described above.” left out

[3] = test system: HIV-1JR-FL; test: Infection of human PBMC by HIV-1JR-FL; type: cell-based; conditions: HIV-1JR-FL infection of human PBMC
Description: Peripheral blood mononuclear cells (PBMC). Human blood was purchased from Research Blood Components, who obtained a consent firm from each donor, according to the American Association of Blood Banks guidelines, PBMC were isolated from the whole blood using a Ficoll-Paque gradient (Ficoll-Paque PLUS, Amersham Biosciences) and activated at concentration of 10^6 live cells/ml for 3 days in RPMI-PBMC medium (RPMI-1640 supplemented with 20% FBS, 10% IL-2 (Hemagen, Columbia, Md.), 100 μg/ml primocin (InvivoGen, San Diego, Calif.)) with 4 μg/ml phytohemagglutinin (Sigma-Aldrich, St. Louis, Mo.). In some cases, cells were frozen, thawed and activated prior to the assay.
Viral infection assay. Each test compound was serially diluted in DMSO in a 96-well B&W isoplate (PerkinElmer, Boston, Mass.) using an HP D300 Digital Dispenser, to a final volume of 450 nl. DMSO was used as a control. […] The activity of the firefly luciferase, which was used as a reporter protein in the system, was measured with a Centro LB 960 luminometer (Berthold Technologies, Oak Ridge, Tenn.). One hundred microliters of assay buffer (15 mM MgSO4, 15 mM KH2PO4/K2HPO4 pH 7.8, 1 mM ATP and 1 mM DTT) was injected to each well, followed by a 50 μl injection of 1 mM Dluciferin potassium salt (BD Pharmingen, San Jose, Calif.); luminescence was measured for 2 sec. […]

[4] = test system: HIV-1JR-FL; test: Washout experiment, HIV-1JR-FL infection; type: cell-based; conditions: washing out before infection
Description: For washout experiments, different concentrations of 18A were incubated with the recombinant viruses at 37° C. for 20 minutes. The viruses were laid on a 20% sucrose cushion and ultracentrifuged at 30,000 RPM in an SW55 rotor for 1.5 hours at 4° C. After the supernatant was aspirated, viruses were suspended in 500-1000 μl medium and 90 μl of the virus suspension was used to infect 5000 Cf2Th-CD4/CCR5 cells (5 replicates). The cells were incubated for 48 hours and processed as described above. Sensitivity of recombinant viruses to cold inactivation was measured.

[5] = test system: CCR5; test: Binding of soluble gp120 to Cf2Th-CCR5 cells (flow cytometry); design: species or system human; conditions: absence and presence of soluble CD4
Description: Binding of soluble JR-FL gp120 to CCR5 was tested by incubating 1 million Cf2Th-CCR5 cells with 20 μg/mL purified gp120 in the presence or absence of 20 μg/mL sCD4 for 1 hour. After two washes, the cells were incubated with the 2G12 antibody followed by Allophycocyanin-conjugated F(ab′)2 fragment donkey anti-human IgG antibody to detect bound gp120. The cells were analyzed by FACS. All procedures were performed at room temperature.

[6] = Env with KB9 gp120 and JR-FL gp41

## O=C(N/N=C/c1ccc(O)cc1)Nc1cccc2nsnc12 [Compound 18A]
[1]; Env with JR-FL gp120 and KB9 gp41
  sensitivity to inhibition: nearly as sensitive as the parental JR-FL Env
[1]; [6]
  fold more sensitive than parental KB9 Env: 2 fold
  fold resistance relative to JR-FL Env: about 5 fold
[1]; major variable loops of JR-FL gp120 grafted onto KB9 Env
  sensitivity to inhibition: nearly as sensitive to 18A inhibition as JR-FL
[2]
  inhibition of infection: significantly less potent
[3]
  pIC50: 6.40
[4]
  reversibility of inhibition of HIV-1 infection: reversible
[5]
  effect on gp120 binding to CCR5: No effect
